B1: BMP-4: recombinant BMP-4, bone morphogenic protein (protein, UniProt P12644 293-408, looked up)
Bone morphogenetic protein 4: SPKHHSQRARKKNKNCRRHSLYVDFSDVGWNDWIVAPPGYQAFYCHGDCPFPLADHLNSTNHAIVQTLVNSVNSSIPKACCVPTELSAISMLYLDEYDKVVLKNYQEMVVEGCGCR

Experiments:
[1] = test system: TGF-β-activated Smad2/3 signaling; experiment: Western blot for phosphorylated Smad2/3 (canonical TGF-β-activated signaling) in primary macrophages/microglia; type: cell-based, mouse; details: for phosphorylated Smad2/3 after TGF-β1 challenge: TGF-β1 1, 5 or 10 ng/ml with or without LPS 50 ng/ml, 30 min (FIG. 7A); for TGF-β1-induced Smad2/3 phosphorylation: peripheral macrophages pre-treated 1 h with 0.1, 1.0 or 10.0 μM ALK5 inhibitor, then TGF-β1 5 ng/mL for 30 min (FIG. 9A)
Description: (§1) Cortical microglia were isolated from neonatal (1-2 day-old) CD11c-DNR or wild-type C57BL/6 mice according to previously published methods (Tan et al., 1999 Science 286: 2352-2355; Town et al., 2006 J. Immunol, 176: 3804-3812), Briefly, brains were isolated under sterile conditions and cerebral cortices were incubated in tripsin-EDTA (Invitrogen-Gibco) for 15 min at 37° C. Complete RPMI 1640 medium (supplemented with 10% FCS and 1 mM penicillin-streptomycin) was then added and brains were dissociated by trituration. Subsequently, cerebral cortex material was plated in 25 cm^2 flasks (Fisher Scientific), and the media was changed every 2-3 days. When the appearance of microglia was noted (typically 14 days after plating), culture media was exchanged with RPMI 1640 medium supplemented with 5% FCS, and the microglia were isolated by shaking in an incubator-shaker at 200 rpm for 2 h at 37° C. Peripheral MΦ were isolated from adult CD11c-DNR or wild-type C57BL/6 mice according to standard immunological methods by intraperitoneally (i.p.) injecting mice with 900 μL of 3% (w/v) sterile thioglycollate solution diluted in PBS. Four days later, mice were injected i.p. with 10 mL of ice-cold PBS for peritoneal lavage. Peripheral MΦ were then plated with complete medium (DMEM supplemented with 10% FCS and 1 mM penicillin streptomycin) and allowed to rest overnight. […] Microglia or peripheral MΦ from wild-type or CD11c-DNR mice were plated at 1×10^6 cells/well in 6-well tissue culture plates (BD Biosciences-Falcon) containing complete RPMI 1640 media or complete DMEM, respectively. These cells were then treated with a dose-range of recombinant TGF-β1 (R&D Systems; 1, 5, or 10 ng/mL) in the presence or absence of lipopolysachharide (LPS, 50 ng/mL) for 30 min. In a separate set of experiments, these cells were pre-treated for 1 h with ALK5 inhibitors SB-505124 or SB-431542 (Sigma-Aldrich; used at 0.1, 1.0, or 10.0 μM) and 5 ng/mL of recombinant TGF-β1 was added. For Aβ phagocytosis assay, MΦ were pulse-chased with Aβ as described elsewhere herein. Cells were rinsed in ice-cold PBS three times, and lysed ice-cold lysis buffer (containing 20 mM Tris-HCl pH 7.5, 150 mM NaCl, 1 mM Na2EDTA, 1 mM EGTA, 1% v/v Triton X-100, 2.5 mM sodium pyrophosphate, 1 mM glycerophosphate, 1 mM Na3VO4, 1 μg/ml leupeptin, and 1 mM PMSF). After lysis for 30 min on ice, cell lysates were centrifuged at 15,000×g for 30 min, and supernatants were aliquoted for Western blot analysis. Protein concentration was determined using the Bradford method, and aliquots corresponding to 50 μg of protein were run out on 12% Nu-PAGE™ polyacrylamide gels (Invitrogen) and proteins were transferred electrophoretically to Immobilon-P polyvinylidene difluoride membranes (Millipore). Membranes were blocked in blocking buffer (5% w/v nonfat dry milk in Tris-buffered saline containing 1% v/v Tween-20) for 3 h at ambient temperature and incubated overnight at 4° C. with primary polyclonal antibodies directed against total or phosphorylated SMAD2/3, SMAD1/5/8, PAK2, or ERK1/2 (Cell Signaling Technology). Membranes were then rinsed three times for 5 min each in dH2O, and incubated with anti-rabbit secondary antibody conjugated with horseradish peroxidase (diluted at 1/2000 in blocking buffer; GE Healthcare-Amersham Biosciences). After an additional three rinses for 5 min each in dH2O, the membranes were incubated for 5 min at ambient temperature with the enhanced chemiluminescence substrate (Thermo Fisher Scientific-Pierce Biotechnology), exposed to film, and developed.

[2] = test system: bone morphogenic protein-activated Smad1/5/8 signaling; experiment: Western blot for phosphorylated Smad1/5/8 (alternate bone morphogenic protein-activated signaling) in peripheral macrophages; type: cell-based, mouse; details: for ratio of phospho-Smad1/5/8 to phospho-Smad2/3: ALK5 inhibitor treatment alone, 0.1, 1.0 or 10.0 μM, peripheral macrophages (FIG. 9A)
Description: as §1

[3] = test system: p21-activated kinase 2 (PAK2); experiment: Western blot for phosphorylated PAK2 in peripheral macrophages; type: cell-based, mouse; details: wild-type peripheral macrophages; for PAK2 phosphorylation: 30 min, TGF-β1 5 ng/mL alone, BMP-2 50-200 ng/mL or BMP-4 12.5-50 ng/mL (FIG. 12B)
Description: Cortical microglia were isolated from neonatal (1-2 day-old) CD11c-DNR or wild-type C57BL/6 mice according to previously published methods (Tan et al., 1999 Science 286: 2352-2355; Town et al., 2006 J. Immunol, 176: 3804-3812), Briefly, brains were isolated under sterile conditions and cerebral cortices were incubated in tripsin-EDTA (Invitrogen-Gibco) for 15 min at 37° C. Complete RPMI 1640 medium (supplemented with 10% FCS and 1 mM penicillin-streptomycin) was then added and brains were dissociated by trituration. Subsequently, cerebral cortex material was plated in 25 cm^2 flasks (Fisher Scientific), and the media was changed every 2-3 days. When the appearance of microglia was noted (typically 14 days after plating), culture media was exchanged with RPMI 1640 medium supplemented with 5% FCS, and the microglia were isolated by shaking in an incubator-shaker at 200 rpm for 2 h at 37° C. Peripheral MΦ were isolated from adult CD11c-DNR or wild-type C57BL/6 mice according to standard immunological methods by intraperitoneally (i.p.) injecting mice with 900 μL of 3% (w/v) sterile thioglycollate solution diluted in PBS. Four days later, mice were injected i.p. with 10 mL of ice-cold PBS for peritoneal lavage. Peripheral MΦ were then plated with complete medium (DMEM supplemented with 10% FCS and 1 mM penicillin streptomycin) and allowed to rest overnight.
Microglia or peripheral MΦ from wild-type or CD11c-DNR mice were plated at 1×10^6 cells/well in 6-well tissue culture plates (BD Biosciences-Falcon) containing complete RPMI 1640 media or complete DMEM, respectively. These cells were then treated with a dose-range of recombinant TGF-β1 (R&D Systems; 1, 5, or 10 ng/mL) in the presence or absence of lipopolysachharide (LPS, 50 ng/mL) for 30 min. […] Protein concentration was determined using the Bradford method, and aliquots corresponding to 50 μg of protein were run out on 12% Nu-PAGE™ polyacrylamide gels (Invitrogen) and proteins were transferred electrophoretically to Immobilon-P polyvinylidene difluoride membranes (Millipore). […]

[4] = test system: microglia; details: exogenous addition of TGF-β1 to microglia (Wyss-Coray et al., 2001); cited from earlier work
[5] = test system: peripheral macrophages; experiment: Aβ phagocytosis assay, Aβ488 pulse-chase, confocal microscopy; type: cell-based, mouse; details: primary macrophages with ALK5 inhibitor 1 h, pulsed 4 h with pre-aggregated Aβ488, chased 15 min (FIG. 9B-9C)
Description: FIG. 9, comprising FIGS. 9A-9F, is a series of images depicting Activin-like kinase (ALK) inhibition increases the ratio of phospho-SMAD1/5/8 to phospho-SMAD2/3 and promotes macrophage Aβ phagocytosis. FIG. 9A depicts peripheral MΦ pre-treated with a dose range (0.1, 1.0, or 10.0 μM) of ALK5 inhibitors (SB-505124 or SB-431542) for 1 h and then cultured in the presence or absence of recombinant TGF-β1 (5 ng/mL) for 30 min as indicated. Upper panels show Western blots for phospho (p) or total forms of SMAD2/3 or SMAD1/5/8. Lower panel is a histogram showing the ratio of pSMAD1/5/8 to pSMAD2/3. […] FIG. 9C depicts quantification of confocal images (n=3 randomly selected 10× magnification fields per group, group means±s.d.), and Aβ488-labeled area is shown in the upper graph, and numbers of Aβ488 phagocytic cells/field are shown in the lower graph. FIGS. 9D-9F depict gender-dependent reductions in Aβ levels in Tg2576+ animals and anti-inflammatory responses in brains of crossed mice. Biochemical analyses of (FIG. 9D) detergent-soluble and (FIG. 9E) guanidine HCl-soluble Aβ1-42 and Aβ1-42/Aβ1-40 in male vs. female Tg2576 positive mice (irrespective of CD11c-DNR transgene status). FIG. 9F depicts Q-PCR results for Tnfa (left) or Il10 (right) expression (relative to Hprt1) shown for four groups of mice, and statistical comparisons vs. wild-type mice. […]

[6] = peripherally isolated macrophages, exogenous TGF-β1 5 ng/mL, 30 min (FIG. 9A)
[7] = wild-type peripheral macrophages, 30 min, TGF-β1 5 ng/mL alone, BMP-2 50-200 ng/mL or BMP-4 12.5-50 ng/mL (FIG. 12B)

| Molecule | Smad2/3 phosphorylation [1, 7] | Smad1/5/8 phosphorylation [2, 7] | PAK2 phosphorylation [3] | TGF-β1-induced Smad2/3 phosphorylation [1] | ratio of phospho-Smad1/5/8 to phospho-Smad2/3 [2] | macrophage Aβ phagocytosis (Aβ488-labeled area, Aβ488 phagocytic cells/field) [5] | further results |
| --- | --- | --- | --- | --- | --- | --- | --- |
| TGF-β1: recombinant TGF-β1 (R&D Systems), cytokine | promoted Smad2/3 phosphorylation | little impact | little impact | – | – | – | phosphorylated Smad2/3 after TGF-β1 challenge ([1]; CD11c-DNR macrophages): nonresponsive; phosphorylated Smad2/3 after TGF-β1 challenge ([1]; CD11c-DNR microglia): responded to challenge; Smad2/3 phosphorylation ([1]; TGF-β1 5 ng/mL added to the BMP treatment conditions, wild-type peripheral macrophages): further promoted; Smad2/3 phosphorylation [1, 6]: increased phosphorylation; phosphorylated Smad2/3 after TGF-β1 challenge ([1]; wild-type microglia and macrophages): showed phosphorylated Smad2/3; Smad1/5/8 phosphorylation ([2]; CD11c-DNR macrophages, exogenous TGF-β1 and LPS together (FIG. 7B)): further augmented; Smad1/5/8 phosphorylation [2, 6]: increased phosphorylation; BMP-induced PAK2 phosphorylation ([3]; TGF-β1 5 ng/mL added to the BMP treatment conditions): inhibited; Aβ uptake by microglia [4]: promotes increased Aβ uptake |
| Cc1cccc(-c2[nH]c(C(C)(C)C)nc2-c2ccc3c(c2)OCO3)n1 [SB-505124, reference compound] | – | – | – | blocked by ALK5 inhibition in a dose-dependent manner | increased | increased Aβ phagocytosis in a dose-dependent fashion | – |
| NC(=O)c1ccc(-c2nc(-c3ccc4c(c3)OCO4)c(-c3ccccn3)[nH]2)cc1 [SB-431542, reference compound] | – | – | – | blocked by ALK5 inhibition in a dose-dependent manner | increased | increased Aβ phagocytosis in a dose-dependent fashion | – |
| B1 | did not impact | promoted | promoted | – | – | – | ratio of pSmad1/5/8 to pSmad2/3 ([2]; BMP monotreatment compared with TGF-β1 treatment alone, wild-type peripheral macrophages): increased |

From patent US9095126B2, “Targeting TGF-β as a therapy for Alzheimer's disease” (Yale University, priority 2008, dated 2015)
